# Reference: patent publication US20080267882A1, “Imaging compounds, methods of making imaging compounds, methods of imaging, therapeutic compounds, methods of making therapeutic compounds, and methods of therapy” (Stanford University, priority 2007, published 2008)
# “And” between values parts separate entries of the source, which are not always exact repeats. Equal values may be shown once.
# System: MDA-MB-435 tumor-bearing mice
# Experiment: biodistribution of ^3H-PTX and ^3H-RGD2−PTX in MDA-MB-435 tumor-bearing mice
# Assay type: in vivo, mouse
# Method: All animal experiments were performed in compliance with the guidelines for the care and use of research animals established by the Stanford University's Animal Studies Committee. Female athymic nude mice (nu/nu) were obtained from Harlan (Indianapolis, Ind.) at 6-8 weeks of age and were kept under sterile conditions. The MDA-MB-435 cells were harvested and suspended in sterile PBS at a concentration of 5×10^7 cells/mL. Viable cells (5×10^6) in PBS (100 μL) were injected orthotopically in the right mammary fat pad. […] Tumor growth was followed by caliper measurements of perpendicular measures of the tumor. The tumor volume was estimated by the formula: tumor volume=a×(b^2)/2, where a and b are the tumor length and width respectively in mm.
# The animals were euthanized at 4, 24 and 48 h post injection and major organs and tissues were collected correspondingly. Approximately 100 mg of the tissue was added to glass scintillation vials containing 1 mL of tissue solubilizer SoluEne®-350 (Perkin-Elmer, Waltham, Mass.). These samples were digested at 55° C. for overnight followed by bleaching to obtain the decolorized samples. Chemiluminescence was reduced by the addition of glacial acetic acid. Hionic-Fluor liquid scintillation cocktail (Perkin-Elmer) was added to all samples, which were then counted with a Tri-Carb 2800TR liquid scintillation Analyzer (Perkin-Elmer).
smiles,measurement,setting,value
"CC(=O)O[C@H]1C(=O)[C@@]2(C)[C@H]([C@H](OC(=O)c3ccccc3)[C@]3(O)C[C@H](OC(=O)[C@H](O)[C@@H](NC(=O)c4ccccc4)c4ccccc4)C(C)=C1C3(C)C)[C@]1(OC(C)=O)CO[C@@H]1C[C@@H]2O [^3H-PTX, reference compound]","tissue concentration, Blood",4 h,67.1 ± 9.8 ng/g
same,"tissue concentration, Intestine",4 h,274.1 ± 110.1 ng/g
same,"tissue concentration, Kidney",4 h,339.6 ± 67.6 ng/g
same,"tissue concentration, Liver",4 h,2389.3 ± 408.8 ng/g
same,"tissue concentration, Lung",4 h,329.2 ± 18.2 ng/g
same,"tissue concentration, MDA-MB-435 tumor",4 h,239.0 ± 56.2 ng/g
same,"tissue concentration, Muscle",4 h,257.3 ± 32.2 ng/g
same,"tissue concentration, Skin",4 h,135.1 ± 23.5 ng/g
same,"tissue concentration, Spleen",4 h,365.5 ± 118.5 ng/g
same,"tissue concentration, Stomach",4 h,180.7 ± 15.7 ng/g
same,"tissue concentration, Blood",24 h,42.7 ± 14.7 ng/g
same,"tissue concentration, Intestine",24 h,14.4 ± 2.5 ng/g
same,"tissue concentration, Kidney",24 h,38.0 ± 13.3 ng/g
same,"tissue concentration, Liver",24 h,123.4 ± 12.2 ng/g
same,"tissue concentration, Lung",24 h,35.2 ± 5.4 ng/g
same,"tissue concentration, MDA-MB-435 tumor",24 h,85.6 ± 15.2 ng/g
same,"tissue concentration, Muscle",24 h,41.1 ± 17.2 ng/g
same,"tissue concentration, Skin",24 h,24.6 ± 3.2 ng/g
same,"tissue concentration, Spleen",24 h,51.6 ± 7.6 ng/g
same,"tissue concentration, Stomach",24 h,24.4 ± 4.7 ng/g
same,decrease of concentration in the tumor,24 h compared with 4 h,around 3 fold
same,drop of concentration in kidneys,24 h compared with 4 h,9 fold
same,drop of concentration in the liver,24 h compared with 4 h,20 fold
same,"tissue concentration, Blood",48 h,35.0 ± 1.5 ng/g
same,"tissue concentration, Intestine",48 h,12.8 ± 7.0 ng/g
same,"tissue concentration, Kidney",48 h,35.7 ± 2.0 ng/g
same,"tissue concentration, Liver",48 h,132.6 ± 31.9 ng/g
same,"tissue concentration, Lung",48 h,47.9 ± 8.8 ng/g
same,"tissue concentration, MDA-MB-435 tumor",48 h,45.8 ± 1.69 ng/g and 45.8 ± 1.7 ng/g
same,"tissue concentration, Muscle",48 h,35.4 ± 10.7 ng/g
same,"tissue concentration, Skin",48 h,25.4 ± 9.3 ng/g
same,"tissue concentration, Spleen",48 h,36.4 ± 8.4 ng/g
same,"tissue concentration, Stomach",48 h,17.2 ± 4.0 ng/g
same,decrease of concentration in the tumor,48 h compared with 4 h,5.2 fold
